According to PubChem BioAssay AID1919005 (Molecular Pharmacology Branch, DTP, NCI, 2023):
Where “and” joins values, the source holds several entries; their conditions need not be identical. Equal values may be shown once.

Test system: 855422-203-R-J1-PDC complex spheroid growth
Assay: Anticancer human tumor 855422-203-R-J1-PDC patient-derived bladder carcinoma cell line growth inhibition [AhR]
Conditions: for viability, T/C: stronger effect = lower value
In short: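 Agents were dosed in half-log steps down from roughly clinical Cmax, or from 10 microM where Cmax was unknown, alone and with AhR antagonists. Read-out: percent test/control growth of tumor spheroids containing HUVEC and MSC stromal cells.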

[1] = curve of first compound, second compound 0.1 µM
[2] = curve of first compound, second compound 0.316 µM
[3] = curve of first compound, second compound 1 µM
[4] = curve of first compound, second compound 3.16 µM
[5] = curve of first compound, second compound 10 µM
[6] = second compound 0.1 µM, first compound 0.0316 µM
[7] = second compound 0.1 µM, first compound 0.1 µM
[8] = second compound 0.1 µM, first compound 0.316 µM
[9] = second compound 0.1 µM, first compound 1 µM
[10] = second compound 0.316 µM, first compound 0.0316 µM
[11] = second compound 0.316 µM, first compound 0.1 µM
[12] = second compound 0.316 µM, first compound 0.316 µM
[13] = second compound 0.316 µM, first compound 1 µM
[14] = second compound 1 µM, first compound 0.0316 µM
[15] = second compound 1 µM, first compound 0.1 µM
[16] = second compound 1 µM, first compound 0.316 µM
[17] = second compound 1 µM, first compound 1 µM
[18] = second compound 3.16 µM, first compound 0.0316 µM
[19] = second compound 3.16 µM, first compound 0.1 µM
[20] = second compound 3.16 µM, first compound 0.316 µM
[21] = second compound 3.16 µM, first compound 1 µM
[22] = second compound 10 µM, first compound 0.0316 µM
[23] = second compound 10 µM, first compound 0.1 µM
[24] = second compound 10 µM, first compound 0.316 µM
[25] = second compound 10 µM, first compound 1 µM
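Note: spheroids exposed to agents for seven days before readout.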
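Throughout, for viability, T/C: percent of DMSO vehicle control luminescence viability.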

CC1COCCN1c1cc(-c2ccnn2C)c2ccnc(-c3ccn[nH]3)c2n1 (configuration not stated) + CC(CO)NC(=O)c1cc(-c2ccc(Cl)cc2)nn(-c2cnn(C)c2)c1=O
IC50 [1]: 444 nM
IC50 [2]: 347 nM
IC50 [3]: 298 nM
IC50 [4]: 237 nM
IC50 [5]: 178 nM
viability, T/C (second compound 0.1 µM, first compound 0.00316 µM): 94.2%
viability, T/C (second compound 0.1 µM, first compound 0.01 µM): 85%
viability, T/C [6]: 93.2%
viability, T/C [7]: 94.2%
viability, T/C [8]: 61.4%
viability, T/C [9]: 22.8%
viability, T/C (second compound 0.316 µM, first compound 0.00316 µM): 94.5%
viability, T/C (second compound 0.316 µM, first compound 0.01 µM): 87.4%
viability, T/C [10]: 78.5%
viability, T/C [11]: 95.3%
viability, T/C [12]: 52.5%
viability, T/C [13]: 21.1%
viability, T/C (second compound 1 µM, first compound 0.00316 µM): 97.3%
viability, T/C (second compound 1 µM, first compound 0.01 µM): 89.4%
viability, T/C [14]: 88%
viability, T/C [15]: 84.9%
viability, T/C [16]: 47.9%
viability, T/C [17]: 17.6%
viability, T/C (second compound 3.16 µM, first compound 0.00316 µM): 85.7%
viability, T/C (second compound 3.16 µM, first compound 0.01 µM): 91.8%
viability, T/C [18]: 90%
viability, T/C [19]: 76.5%
viability, T/C [20]: 41.2%
viability, T/C [21]: 17.7%
viability, T/C (second compound 10 µM, first compound 0.00316 µM): 85.5%
viability, T/C (second compound 10 µM, first compound 0.01 µM): 94.7%
viability, T/C [22]: 78.5%
viability, T/C [23]: 68.9%
viability, T/C [24]: 32.2%
viability, T/C [25]: 19.8%

Nc1ncn(C2CC(O)C(CO)S2)c(=O)n1 (configuration not stated)
viability, T/C (compound 0.000949 µM): 108% and 96.3% and 97.9%
viability, T/C (compound 0.003 µM): 93.2% and 97.4% and 100%
viability, T/C (compound 0.00949 µM): 95.8% and 97.7% and 113%
viability, T/C (compound 0.03 µM): 82.9% and 103% and 95.7%
viability, T/C (compound 0.0949 µM): 86.4% and 98.1% and 91.1%
viability, T/C (compound 0.3 µM): 81.6% and 99.8% and 82.1%
IC50 (curve of compound): > 300 nM

CC(C)c1c(-c2ccccc2)nc2c(C#N)c[nH]n2c1=O + CC(CO)NC(=O)c1cc(-c2ccc(Cl)cc2)nn(-c2cnn(C)c2)c1=O
IC50 [1]: > 10000 nM
IC50 [2]: > 10000 nM
IC50 [3]: > 10000 nM
IC50 [4]: > 10000 nM
IC50 [5]: > 10000 nM
viability, T/C [6]: 103%
viability, T/C [7]: 100%
viability, T/C [8]: 95.2%
viability, T/C [9]: 85.6%
viability, T/C (second compound 0.1 µM, first compound 3.16 µM): 92.4%
viability, T/C (second compound 0.1 µM, first compound 10 µM): 91.8%
viability, T/C [10]: 93.1%
viability, T/C [11]: 105%
viability, T/C [12]: 95.8%
viability, T/C [13]: 105%
viability, T/C (second compound 0.316 µM, first compound 3.16 µM): 98.8%
viability, T/C (second compound 0.316 µM, first compound 10 µM): 92%
viability, T/C [14]: 103%
viability, T/C [15]: 106%
viability, T/C [16]: 104%
viability, T/C [17]: 99.8%
viability, T/C (second compound 1 µM, first compound 3.16 µM): 99.6%
viability, T/C (second compound 1 µM, first compound 10 µM): 96.5%
viability, T/C [18]: 97.3%
viability, T/C [19]: 106%
viability, T/C [20]: 99.2%
viability, T/C [21]: 93.6%
viability, T/C (second compound 3.16 µM, first compound 3.16 µM): 91.3%
viability, T/C (second compound 3.16 µM, first compound 10 µM): 110%
viability, T/C [22]: 86.9%
viability, T/C [23]: 90.9%
viability, T/C [24]: 91.7%
viability, T/C [25]: 98%
viability, T/C (second compound 10 µM, first compound 3.16 µM): 93%
viability, T/C (second compound 10 µM, first compound 10 µM): 92.1%
